Data: patent US20170159130A1, “TRANSCRIPTIONAL CLASSIFICATION AND PREDICTION OF DRUG RESPONSE (T-CAP DR)” (priority 2015, published 2017)
Like-named read-outs stand apart in the source and are kept apart here.

Test system: human myeloma cell lines (HMCLs)
Test: In vitro chemosensitivity (cytotoxicity) assay, CellTiter-Glo luminescent cell viability, panel of 50 HMCLs
Format: cell-based
Details: for IC50: single agent, viability 48 hours post treatment; for AUSC (area under the survival curve), Maximum / AUSC (area under the survival curve), Mean / AUSC (area under the survival curve), Median / AUSC (area under the survival curve), Minimum: trapezoidal rule, 48 hours post treatment
Experimental: Fifty (50) HMCLs were procured from various institutions, established and characterized, and maintained in Human Myeloma Cell Line (HMCL) media with IL-6 (Mitra et al., 2016). Table 1A provides the cytogenetic characteristics of the […] cytotoxicity assays were performed on the HMCLs to create a drug sensitivity profile in response to treatment with increasing concentrations of Bz, Cz, Ix and Opz as single agents and half-maximal inhibitory concentration/IC50 values and area under the survival curve/AUSC were calculated as described in Mitra et al. (2016). Briefly, cells were counted using Countess automated cell counter (Invitrogen) and seeded in 96-well plates at a concentration of 4×10^5 cells per mL. After 24 hours, cells were treated with increasing concentrations of Bz, Cz, Ix and Opz as single agents. […] Percent survival values were normalized to untreated controls and half-maximal inhibitory concentration/IC50 values were determined by calculating the nonlinear regression using sigmoidal dose-response equation (variable slope). Area under the survival curve/AUSC was calculated using trapezoidal rule and log2-transformed for further statistical analysis (Mitra et al., 2016). Caspase3/7 activity were evaluated using Caspase-Glo®3/7 Assay kit (Promega) on Synergy 2 Microplate Reader.

[1] = Homo sapiens, maximum across panel of 50 HMCLs, read-out: IC50, Maximum
[2] = Homo sapiens, mean across panel of 50 HMCLs, read-out: IC50, Mean
[3] = Homo sapiens, median across panel of 50 HMCLs, read-out: IC50, Median
[4] = Homo sapiens, minimum across panel of 50 HMCLs, read-out: IC50, Minimum
[5] = maximum across panel of 50 HMCLs
[6] = median across panel of 50 HMCLs
[7] = minimum across panel of 50 HMCLs

| SMILES | IC50 [1] | IC50 [2] | IC50 [3] | IC50 [4] | AUSC (area under the survival curve), Maximum [5] | AUSC (area under the survival curve), Mean (mean across panel of 50 HMCLs) | AUSC (area under the survival curve), Median [6] | AUSC (area under the survival curve), Minimum [7] | IC50 (maximum across panel of 50 HMCLs, read-out: IC50, Maximum) | IC50 (mean across panel of 50 HMCLs, read-out: IC50, Mean) | IC50 (median across panel of 50 HMCLs, read-out: IC50, Median) | IC50 (minimum across panel of 50 HMCLs, read-out: IC50, Minimum) |
| --- | --- | --- | --- | --- | --- | --- | --- | --- | --- | --- | --- | --- |
| CC(C)C[C@H](NC(=O)[C@H](Cc1ccccc1)NC(=O)c1cnccn1)B(O)O [Bortezomib] | 124 nM | 17.1 nM | 11.7 nM | 2.8 nM | 38.974 µM | 2.7001 µM | 1524.0 nM | 319.6 nM | – | – | – | – |
| CC(C)C[C@H](NC(=O)[C@H](CCc1ccccc1)NC(=O)CN1CCOCC1)C(=O)N[C@@H](Cc1ccccc1)C(=O)N[C@@H](CC(C)C)C(=O)[C@@]1(C)CO1 [Carfilzomib] | 55.3 nM | 10.9 nM | 7.1 nM | 0.7 nM | 19.097 µM | 3.5034 µM | 1448.5 nM | 375.5 nM | – | – | – | – |
| CC(C)C[C@H](NC(=O)CNC(=O)c1cc(Cl)ccc1Cl)B(O)O [Ixazomib] | – | – | – | – | 46.494 µM | 10.03 µM | 6456.0 nM | 1702.0 nM | 4760 nM | 155 nM | 42.1 nM | 15.1 nM |
| COC[C@H](NC(=O)c1cnc(C)s1)C(=O)N[C@@H](COC)C(=O)N[C@@H](Cc1ccccc1)C(=O)[C@@]1(C)CO1 [Oprozomib] | 776 nM | 45.8 nM | 23.7 nM | 7.6 nM | 59.917 µM | 5.017 µM | 2885.0 nM | 1050.0 nM | – | – | – | – |
